Test results taken from ChEMBL document CHEMBL3046245, “Effects of Ginkgo biloba constituents on fruit-infesting behavior of codling moth (Cydia pomonella) in apples” (2011).
Calls of active or inactive are those of the source. No cut-off for these calls is given here.

Legend:
Cydia pomonella [1] = experiment: Inhibition of fruit-infesting behavior of Cydia pomonella (codling moth) neonates infested in apple fruit plugs assessed as feeding deterrence index at 30 mg/mL; assay type: functional, organism-based
Cydia pomonella [2] = experiment: Inhibition of fruit-infesting behavior of Cydia pomonella (codling moth) neonates infested in apple fruit plugs assessed as feeding deterrence index at 0.1 mg/mL; assay type: functional
Cydia pomonella [3] = experiment: Inhibition of fruit-infesting behavior of Cydia pomonella (codling moth) neonates infested in apple fruit plugs assessed as feeding deterrence index at 10 mg/mL; assay type: functional
Cydia pomonella [4] = experiment: Inhibition of fruit-infesting behavior of Cydia pomonella (codling moth) neonates infested in apple fruit plugs assessed as feeding deterrence index at 1 mg/mL; assay type: functional
Cydia pomonella [5] = experiment: Inhibition of fruit-infesting behavior of Cydia pomonella (codling moth) neonates infested in apple fruit plugs assessed as feeding deterrence index at 5 mg/mL; assay type: functional
Cydia pomonella [6] = experiment: Inhibition of fruit-infesting behavior of Cydia pomonella (codling moth) neonates infested in apple fruit plugs assessed as feeding deterrence index at 2 mg/mL; assay type: functional
Cydia pomonella [7] = experiment: Inhibition of fruit-infesting behavior of Cydia pomonella (codling moth) neonates infested in apple fruit plugs assessed as feeding deterrence index at 0.5 mg/mL; assay type: functional
Cydia pomonella [8] = experiment: Inhibition of fruit-infesting behavior of Cydia pomonella (codling moth) neonates infested in apple fruit plugs assessed as feeding deterrence index at 0.2 mg/mL; assay type: functional
Cydia pomonella [9] = experiment: Inhibition of fruit-infesting behavior of Cydia pomonella (codling moth) neonates infested in apple fruit plugs assessed as feeding deterrence index at 0.001 mg/mL; assay type: functional
Cydia pomonella [10] = experiment: Inhibition of fruit-infesting behavior of Cydia pomonella (codling moth) neonates infested in apple fruit plugs assessed as feeding deterrence index at 0.01 mg/mL; assay type: functional
Cydia pomonella [11] = experiment: Inhibition of fruit-infesting behavior of Cydia pomonella (codling moth) neonates infested in apple fruit plugs assessed as feeding deterrence index at 3 mg/mL; assay type: functional
Cydia pomonella [12] = experiment: Inhibition of fruit-infesting behavior of Cydia pomonella (codling moth) neonates infested in apple fruit plugs assessed as feeding deterrence index at 60 mg/mL; assay type: functional, organism-based

| SMILES | FDI (Cydia pomonella [2]) | FDI (Cydia pomonella [3]) | FDI (Cydia pomonella [4]) | FDI (Cydia pomonella [5]) | FDI (Cydia pomonella [7]) | also measured |
| --- | --- | --- | --- | --- | --- | --- |
| O=c1c(O)c(-c2ccc(O)c(O)c2)oc2cc(O)cc(O)c12 | inactive | inactive | inactive | – | – | FDI (Cydia pomonella [1]): inactive |
| CCCCCCCCCCCCCCCc1cccc(O)c1C(=O)O [ANACARDIC ACID] | – | – | 91.7% | 81.8% | 26.7% | FDI (Cydia pomonella [6]): 73.7%; FDI (Cydia pomonella [8]): 25% |
| CC(C)(C)[C@]1(O)CC2OC(=O)CC23C(=O)OC2OC(=O)[C@H](O)C231 (some centres undefined) [BILOBALIDE] | 56.5% | 75% | 50% | – | – | FDI (Cydia pomonella [9]): 0%; FDI (Cydia pomonella [10]): 23.5% |
| CCCCCC/C=C\CCCCCCCc1cccc(O)c1C(=O)O [GINGKOLIC ACID] | – | 63.2% | 41.7% | 50% | 18.8% | – |
| CCCCCCCCCCCCCc1cccc(O)c1C(=O)O [GINKGOLIC ACID 13:0] | – | 42.1% | 26.1% | 0% | 23.5% | – |
| CCCCCC/C=C\CCCCCCCCCc1cccc(O)c1C(=O)O [GINKGOLIC ACID 17:1] | – | 60% | 5.3% | 54.5% | 37.5% | – |
| C[C@@H]1C(=O)O[C@H]2C[C@@]34[C@H]5C[C@@H](C(C)(C)C)[C@]36[C@@H](OC(=O)[C@@H]6O)O[C@@]4(C(=O)O5)[C@]21O [GINKGOLIDE A] | 7.69% | 38.5% | 40.4% | – | – | – |
| C[C@@H]1C(=O)O[C@H]2[C@H](O)[C@@]34O[C@@H]5OC(=O)[C@H](O)[C@@]56[C@H](C(C)(C)C)[C@H](O)C(OC3=O)[C@]64[C@@]12O (some centres undefined) [GINKGOLIDE C] | 11.8% | 10% | 20% | – | – | – |
| C[C@@H]1C(=O)O[C@H]2[C@H](O)[C@@]34[C@H]5C[C@@H](C(C)(C)C)[C@]36[C@@H](OC(=O)[C@@H]6O)O[C@@]4(C(=O)O5)[C@@]12O [GINKOLIDE B] | 12.5% | 76% | 26.1% | – | – | – |
| COc1cc(-c2oc3cc(O)cc(O)c3c(=O)c2O)ccc1O [ISORHAMNETIN] | 10.3% | – | inactive | – | – | FDI (Cydia pomonella [10]): 21.7%; FDI (Cydia pomonella [11]): 32.1% |
| O=c1c(O)c(-c2ccc(O)cc2)oc2cc(O)cc(O)c12 [KAEMPFEROL] | inactive | inactive | 25% | – | – | FDI (Cydia pomonella [1]): inactive; FDI (Cydia pomonella [12]): inactive |
